Assay results as given in patent US20220267277A1, “DOPAMINE RECEPTOR D1 AGONISTS AND METHODS OF USE” (Sanford Burnham Prebys Medical Discovery Institute, priority 2019, published 2022).
Like-named read-outs stand apart in the source and are kept apart here.

Columns and labels:
[1] = system: YAP/TAZ nuclear localization in human lung fibroblasts; test: YAP/TAZ nuclear localization in human lung fibroblasts (FIG. 1)
Col1a1 = conditions: 10 μM; precision cut lung slices cultured for 3 days; aged mice (24 months) injured with bleomycin
YAP/TAZ = test: Inhibition of YAP/TAZ (Example B-1, Table 4); format: cell-based
Description: (§1) Example B-1: Enzyme Assay of Inhibition of YAP/TAZ and DR1

DR1 = target: T1, DR1 (Homo sapiens, UniProt P21728); test: DR1 agonism EC50 (Example B-1, Table 4); format: cell-based
T1 construct: endogenous in cells; host or cells: IPF patient derived fibroblasts
Protocol: cAMP Assay: IPF patient derived fibroblasts are plated in EMEM containing 10% FBS overnight. […] Twenty minutes prior to cell lysis the media is removed and cells are treated with “induction buffer” containing nonselective phosphodiesterase inhibitors and the indicated concentration of compound(s). Luminescence is measured on a Flexstation 3 (Molecular Devices) plate reader.
as §1

T1 sequence (P21728 whole entry): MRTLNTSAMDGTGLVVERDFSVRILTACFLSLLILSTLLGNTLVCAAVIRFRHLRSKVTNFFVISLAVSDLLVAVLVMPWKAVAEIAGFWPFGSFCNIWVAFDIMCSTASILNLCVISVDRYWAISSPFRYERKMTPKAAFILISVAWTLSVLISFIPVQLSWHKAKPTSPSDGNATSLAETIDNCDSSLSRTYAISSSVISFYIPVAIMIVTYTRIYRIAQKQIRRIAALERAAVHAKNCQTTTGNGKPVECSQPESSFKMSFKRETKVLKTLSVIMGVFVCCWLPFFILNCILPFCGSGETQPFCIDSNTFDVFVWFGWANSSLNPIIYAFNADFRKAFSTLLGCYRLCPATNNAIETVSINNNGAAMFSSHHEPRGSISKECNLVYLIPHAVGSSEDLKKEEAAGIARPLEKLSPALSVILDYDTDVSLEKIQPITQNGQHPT

| Compound | inhibition of YAP/TAZ nuclear localization [1] | expression of Col1a1 (Col1a1) | IC50 (YAP/TAZ) [nM] | EC50 (DR1; read-out: DR1 EC50) [nM] | EC50 (DR1) [nM] |
| --- | --- | --- | --- | --- | --- |
| Cc1cc2c(cc1O)CN[C@H]1CCc3cc(O)c(O)cc3[C@H]21 (relative stereo) [Compound 3, Trans-(6a,12b)-2-methyl-5,6,6a,7,8,12b-hexahydro-benzo[a]phenanthridine-3,10,11-triol] | inhibit YAP/TAZ nuclear localization | inhibits expression of Col1a1 |  |  |  |
| COc1c(O)cc(C2CNCc3sccc32)cc1Cl (centres unmarked) [3-chloro-2-methoxy-5-(4,5,6,7-tetrahydrothieno[2,3-c]pyridin-4-yl)phenol] |  |  | 1000 to 20000 | 1000 to 20000 |  |
| Oc1cc(C2CNCc3sccc32)cc(Cl)c1O (centres unmarked) [3-chloro-5-(4,5,6,7-tetrahydrothieno[2,3-c]pyridin-4-yl)benzene-1,2-diol] |  |  | 1000 to 20000 | < 1000 |  |
| Oc1ccc(C2CNCc3cnccc32)cc1O (centres unmarked) [4-(1,2,3,4-tetrahydro-2,7-naphthyridin-4-yl)benzene-1,2-diol] |  |  | 1000 to 20000 |  |  |
| CCCc1csc2c1C(c1ccc(OC)c(OC)c1)CNC2 (centres unmarked) [4-(3,4-dimethoxyphenyl)-3-propyl-4,5,6,7-tetrahydrothieno[2,3-c]pyridine] |  |  | 1000 to 20000 | 1000 to 20000 |  |
| COc1ccc(C2CNCc3sccc32)cc1OC (centres unmarked) [4-(3,4-dimethoxyphenyl)-4,5,6,7-tetrahydrothieno[2,3-c]pyridine] |  |  | 1000 to 20000 | 1000 to 20000 |  |
| COc1cc(C2CNCc3sccc32)cc(Cl)c1OC (centres unmarked) [4-(3-chloro-4,5-dimethoxyphenyl)-4,5,6,7-tetrahydrothieno[2,3-c]pyridine] |  |  | 1000 to 20000 | 1000 to 20000 |  |
| CCCc1csc2c1C(c1ccc(O)c(O)c1)CNC2 (centres unmarked) [4-(3-propyl-4,5,6,7-tetrahydrothieno[2,3-c]pyridin-4-yl)benzene-1,2-diol] |  |  | 1000 to 20000 | 1000 to 20000 |  |
| CN1Cc2sccc2C(c2ccc(O)c(O)c2)C1 (centres unmarked) [4-(6-methyl-4,5,6,7-tetrahydrothieno[2,3-c]pyridin-4-yl)benzene-1,2-diol] |  |  | 1000 to 20000 | 1000 to 20000 |  |
| Oc1cc2c(cc1O)[C@@H]1c3ccc(O)c(O)c3CN[C@@H]1CC2 [(6aR,12bR)-5,6,6a,7,8,12b-hexahydrobenzo[a]phenanthridine-3,4,10,11-tetraol] |  |  | 1000 to 20000 |  |  |
| Oc1ccc2c(c1)[C@@H]1c3cc(O)c(O)cc3CC[C@H]1NC2 [(6aR,12bS)-5,6,6a,7,8,12b-hexahydrobenzo[a]phenanthridine-2,10,11-triol] |  |  | 1000 to 20000 |  | < 1000 |
| Oc1cc2c(cc1O)[C@H]1c3ccc(O)c(O)c3CN[C@@H]1CC2 [(6aR,12bS)-5,6,6a,7,8,12b-hexahydrobenzo[a]phenanthridine-3,4,10,11-tetraol] |  |  | 1000 to 20000 |  |  |
| Cc1cc2c(cc1O)CN[C@H]1CCc3cc(O)c(O)cc3[C@H]21 [(6aS,12bR)-2-methyl-5,6,6a,7,8,12b-hexahydrobenzo[a]phenanthridine-3,10,11-triol] |  |  | 1000 to 20000 |  | < 1000 |
| CCCc1csc2c1[C@@H](c1ccc(O)c(O)c1)CNC2 [(R)-4-(3-propyl-4,5,6,7-tetrahydrothieno[2,3-c]pyridin-4-yl)benzene-1,2-diol] |  |  | 1000 to 20000 | 1000 to 20000 |  |
| Oc1ccc([C@H]2CNCc3sccc32)cc1O [(R)-4-(4,5,6,7-tetrahydrothieno[2,3-c]pyridin-4-yl)benzene-1,2-diol] |  |  | 1000 to 20000 | < 1000 |  |
| CCCc1csc2c1[C@H](c1ccc(O)c(O)c1)CNC2 [(S)-4-(3-propyl-4,5,6,7-tetrahydrothieno[2,3-c]pyridin-4-yl)benzene-1,2-diol] |  |  | 1000 to 20000 | 1000 to 20000 |  |
| Oc1ccc([C@@H]2CNCc3sccc32)cc1O [(S)-4-(4,5,6,7-tetrahydrothieno[2,3-c]pyridin-4-yl)benzene-1,2-diol] |  |  | 1000 to 20000 | < 1000 |  |
| (6aR,12bS)-10,11-dimethoxy-2-methyl-5,6,6a,7,8,12b-hexahydrobenzo[a]phenanthridin-3-ol [Compound 4a] | inhibit YAP/TAZ nuclear localization |  |  |  |  |
